Earlier results, collected in US20140314667A1, “METHODS OF TREATING EPIDERMAL GROWTH FACTOR DELETION MUTANT VIII RELATED DISORDERS” (AMGEN INC., priority 2011, published 2014).

Tests used:
[1] = test system: P388, L1210, and LY5178 murine leukemic cell suspensions; settings: in vitro; cited from earlier work
[2] = test system: P388 lymphocytic leukemia system; settings: Kupchan 1974; cited from earlier work
L1210 cells = settings: Sieber et al.; untreated control mitotic index 3.2 to 5.8%; cited from earlier work
[3] = test system: human acute lymphoblastic leukemia line CEM; settings: in vitro, Wolpert-DeFillippes et al.; cited from earlier work
[4] = U.S. Pat. No. 3,896,111; cited from earlier work
[5] = test system: L1210 mouse leukemia system, the human Lewis lung carcinoma system and the human B-16 melanocarcinoma system; settings: Kupchan 1974; cited from earlier work

## COc1cc2cc(c1Cl)N(C)C(=O)C[C@H](OC(=O)[C@H](C)N(C)C(C)=O)[C@]1(C)O[C@H]1[C@H](C)[C@@H]1C[C@@](O)(NC(=O)O1)[C@H](OC)/C=C/C=C(\C)C2 [Maytansine]
[1]
  inhibitory doses: 10^−3 to 10^−1 µg/µl
[2]
  dosage range over which tumor growth was inhibited: 50- to 100 fold
L1210 cells
  cells accumulating in mitosis: 67%
[3]
  inhibitory concentration: ≥ 10^−7 mg/ml
[4]
  more cytotoxic than conventional cancer chemotherapeutic agents like methotrexate, daunorubicin, and vincristine: 100 to 1000 fold
[5]
  inhibitory activity: significant inhibitory activity
